ChEMBL document CHEMBL1287698, “Artemisinin-quinoline hybrid-dimers: synthesis and in vitro antiplasmodial activity” (Bioorg Med Chem Lett, 2010)

Experiments:
[1] = tested on: Plasmodium falciparum; test: Resistance index, ratio of IC50 for chloroquine-resistant Plasmodium falciparum Dd2 to IC50 for chloroquine-sensitive Plasmodium falciparum D10; assay type: functional
[2] = tested on: Plasmodium falciparum; test: Antiplasmodial activity against chloroquine-sensitive Plasmodium falciparum D10; assay type: functional, organism-based
[3] = tested on: Plasmodium falciparum; test: Antiplasmodial activity against chloroquine-resistant Plasmodium falciparum Dd2; assay type: functional, organism-based
[4] = tested on: CHO; test: Cytotoxicity against CHO cells by MTT assay; assay type: cell-based; conditions: Cricetulus griseus
[5] = Selectivity index, ratio of IC50 for CHO cells to IC50 of chloroquine-sensitive Plasmodium falciparum D10; assay type: toxicity, cell-based; conditions: hamster, read-out: Ratio IC50

Row | Structure (SMILES) | Ratio IC50 [1] | IC50 [2] [nM] | IC50 [3] [nM] | IC50 [4] [nM] | selectivity ratio [5]
1 | CC[C@H]1CN2CCc3cc(OC)c(OC)cc3[C@@H]2C[C@@H]1C[C@H]1NCCc2cc(OC)c(OC)cc21 [EMETINE] | 0.4 | – | – | – | –
2 | C[C@H]1[C@@H](O)O[C@@H]2O[C@@]3(C)CC[C@H]4[C@H](C)CC[C@@H]1[C@@]24OO3 [ARTENIMOL] | – | 5.11 | 2.09 | – | –
3 | C[C@H]1[C@@H](O[N+]2(CCO[C@H]3O[C@H]4O[C@]5(C)CC[C@H]6[C@H](C)CC[C@@H]([C@H]3C)[C@@]46OO5)CCN(CCNc3ccnc4cc(Cl)ccc34)CC2)O[C@@H]2O[C@]3(C)CC[C@H]4[C@H](C)CC[C@@H]1[C@@]24OO3.[Br-] | 3 | 19.6 | 55.7 | 74.8 | 3810
4 | C[C@H]1[C@@H](OCCN(CCCNc2ccnc3cc(Cl)ccc23)CCO[C@H]2O[C@@H]3O[C@]4(C)CC[C@H]5[C@H](C)CC[C@@H]([C@H]2C)[C@@]35OO4)O[C@@H]2O[C@]3(C)CC[C@H]4[C@H](C)CC[C@@H]1[C@@]24OO3 | 5 | 5.31 | 28.4 | 0.68 | 128
5 | C[C@H]1[C@@H](OCCN(CCNc2ccnc3cc(Cl)ccc23)CCO[C@H]2O[C@@H]3O[C@]4(C)CC[C@H]5[C@H](C)CC[C@@H]([C@H]2C)[C@@]35OO4)O[C@@H]2O[C@]3(C)CC[C@H]4[C@H](C)CC[C@@H]1[C@@]24OO3 | 6 | 7.37 | 46.1 | 10 | 1360
6 | C[C@H]1[C@@H](OCCN(CCCCNc2ccnc3cc(Cl)ccc23)CCO[C@H]2O[C@@H]3O[C@]4(C)CC[C@H]5[C@H](C)CC[C@@H]([C@H]2C)[C@@]35OO4)O[C@@H]2O[C@]3(C)CC[C@H]4[C@H](C)CC[C@@H]1[C@@]24OO3 | 2 | 89 | 205 | 5.43 | 61
